In publication PMC12362796, “Bilirubin Targeting WNK1 to Alleviate NLRP3‐Mediated Neuroinflammation” (Advanced Science, 2025):
pKd: −log10 of the molar value.

Experiments:
WNK1 (191–491) = target: T1, WNK1 (191–491) (Homo sapiens, UniProt Q9H4A3); assay: MST, EGFP-tagged WNK1 truncation 191–491; type: binding; details: WNK1 191–491, 15 min, HEK293T lysates
T1 construct: different lengths of WNK1 truncations (1–491, 1–190, 191–491, 491–2382); expressed in transfected cells; host or cells: HEK293T
T1 sequence (Q9H4A3 191-491): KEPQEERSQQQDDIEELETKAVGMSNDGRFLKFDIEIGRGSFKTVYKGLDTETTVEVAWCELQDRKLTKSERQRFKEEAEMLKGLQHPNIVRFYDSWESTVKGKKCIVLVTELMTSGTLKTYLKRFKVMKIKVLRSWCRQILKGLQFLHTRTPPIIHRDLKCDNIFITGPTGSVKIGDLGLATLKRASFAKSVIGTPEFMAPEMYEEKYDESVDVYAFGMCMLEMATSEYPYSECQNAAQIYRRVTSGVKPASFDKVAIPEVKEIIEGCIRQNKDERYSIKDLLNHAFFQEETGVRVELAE
Excerpt: To further validate these findings, we constructed GFP‐tagged fusion proteins with different lengths of WNK1 truncations (1–491, 1–190, 191–491, 491–2382) based on the WNK1 domains (Figure 3E) and analyzed their binding capacity with bilirubin using MST analysis.^[ [29] ^]
(§1) All WNK1 clones were derived from the original untagged hWNK1 cDNA (NM_018979), which was modified and subcloned into the pcDNA3.1, referred to as “full‐length WNK1” throughout this study. Truncated constructs, including 1–190aa, 191–491aa, 1–491aa, and 491–2382aa fragments, were generated by PCR using the full‐length template and subsequently ligated into linearized pcDNA3.1 vectors. WNK2 was obtained from Addgene Plasmid #24569, and WNK3 was obtained from Addgene Plasmid #81723. Both were subjected to base modifications and cloned into pcDNA3.1. The WNK4 clone was derived from hWNK4 cDNA (NM_032387.5), modified, and subcloned into the pCMV3‐C‐GFPSpark vector.
In HEK293T cells, proteins tagged with green fluorescent protein (GFP) were expressed. The cells were lysed using the M‐PER Mammalian Protein Extraction Reagent (cat. no. 78505, Thermo Scientific) supplemented with protease inhibitors. Lysates were centrifuged at 12000 × g for 15 min at 4 °C, and the supernatant containing proteins was diluted 10‐fold with 1x PBST. […]

[1] = test system: OSR1 and SPAK phosphorylation; assay: Western blotting of OSR1 and SPAK phosphorylation in hippocampus; type: cell-based, mouse
Excerpt: To further investigate the impact of bilirubin on WNK1 kinase activity, we generated hippocampal neuron‐specific Wnk1 knockout mice. Given that conventional Wnk1 knockout mice are embryonically lethal, we employed the CRISPR/Cas9 method to create mice carrying the floxed Wnk1 gene. Then we crossed Thy1‐Cre mice with Wnk1^flox/flox mice to generate hippocampal neuron‐specific Wnk1 knockout mice. We examined the effects of bilirubin on the phosphorylation of WNK1 downstream targets, Ste20‐related proline alanine‐rich kinase (SPAK), and oxidative stress‐responsive kinase 1 (OSR1), in the hippocampus of Wnk1^flox/flox and Wnk1^flox/flox,Thy1‐Cre mice. Upon bilirubin treatment, phosphorylation of OSR1 and SPAK was elevated in the hippocampus of Wnk1^flox/flox mice. […] These findings indicate that the effect of bilirubin on OSR1 and SPAK phosphorylation is WNK1‐dependent (Figure 4B). To rule out the potential effects of osmolarity on the phosphorylation of WNK1, OSR1, and SPAK, we measured the osmolarity of different bilirubin concentrations.
Cells or tissues were lysed by grinding in RIPA buffer (cat. no. PC101; Epizyme Biotech) supplemented with a protease inhibitor cocktail (cat. no. 5872S; Cell Signaling Technology) at 4 °C. […] The total protein concentration was determined using the Pierce BCA Protein Assay Kit (cat. no. 23 225, Thermo Fisher Scientific). […]

hWNK3 = target: T2, hWNK3 (Homo sapiens, UniProt Q9BYP7); assay: MST, WNK kinase family member WNK3; type: binding
T2 construct: host or cells: HEK293T
T2 sequence (Q9BYP7 whole entry): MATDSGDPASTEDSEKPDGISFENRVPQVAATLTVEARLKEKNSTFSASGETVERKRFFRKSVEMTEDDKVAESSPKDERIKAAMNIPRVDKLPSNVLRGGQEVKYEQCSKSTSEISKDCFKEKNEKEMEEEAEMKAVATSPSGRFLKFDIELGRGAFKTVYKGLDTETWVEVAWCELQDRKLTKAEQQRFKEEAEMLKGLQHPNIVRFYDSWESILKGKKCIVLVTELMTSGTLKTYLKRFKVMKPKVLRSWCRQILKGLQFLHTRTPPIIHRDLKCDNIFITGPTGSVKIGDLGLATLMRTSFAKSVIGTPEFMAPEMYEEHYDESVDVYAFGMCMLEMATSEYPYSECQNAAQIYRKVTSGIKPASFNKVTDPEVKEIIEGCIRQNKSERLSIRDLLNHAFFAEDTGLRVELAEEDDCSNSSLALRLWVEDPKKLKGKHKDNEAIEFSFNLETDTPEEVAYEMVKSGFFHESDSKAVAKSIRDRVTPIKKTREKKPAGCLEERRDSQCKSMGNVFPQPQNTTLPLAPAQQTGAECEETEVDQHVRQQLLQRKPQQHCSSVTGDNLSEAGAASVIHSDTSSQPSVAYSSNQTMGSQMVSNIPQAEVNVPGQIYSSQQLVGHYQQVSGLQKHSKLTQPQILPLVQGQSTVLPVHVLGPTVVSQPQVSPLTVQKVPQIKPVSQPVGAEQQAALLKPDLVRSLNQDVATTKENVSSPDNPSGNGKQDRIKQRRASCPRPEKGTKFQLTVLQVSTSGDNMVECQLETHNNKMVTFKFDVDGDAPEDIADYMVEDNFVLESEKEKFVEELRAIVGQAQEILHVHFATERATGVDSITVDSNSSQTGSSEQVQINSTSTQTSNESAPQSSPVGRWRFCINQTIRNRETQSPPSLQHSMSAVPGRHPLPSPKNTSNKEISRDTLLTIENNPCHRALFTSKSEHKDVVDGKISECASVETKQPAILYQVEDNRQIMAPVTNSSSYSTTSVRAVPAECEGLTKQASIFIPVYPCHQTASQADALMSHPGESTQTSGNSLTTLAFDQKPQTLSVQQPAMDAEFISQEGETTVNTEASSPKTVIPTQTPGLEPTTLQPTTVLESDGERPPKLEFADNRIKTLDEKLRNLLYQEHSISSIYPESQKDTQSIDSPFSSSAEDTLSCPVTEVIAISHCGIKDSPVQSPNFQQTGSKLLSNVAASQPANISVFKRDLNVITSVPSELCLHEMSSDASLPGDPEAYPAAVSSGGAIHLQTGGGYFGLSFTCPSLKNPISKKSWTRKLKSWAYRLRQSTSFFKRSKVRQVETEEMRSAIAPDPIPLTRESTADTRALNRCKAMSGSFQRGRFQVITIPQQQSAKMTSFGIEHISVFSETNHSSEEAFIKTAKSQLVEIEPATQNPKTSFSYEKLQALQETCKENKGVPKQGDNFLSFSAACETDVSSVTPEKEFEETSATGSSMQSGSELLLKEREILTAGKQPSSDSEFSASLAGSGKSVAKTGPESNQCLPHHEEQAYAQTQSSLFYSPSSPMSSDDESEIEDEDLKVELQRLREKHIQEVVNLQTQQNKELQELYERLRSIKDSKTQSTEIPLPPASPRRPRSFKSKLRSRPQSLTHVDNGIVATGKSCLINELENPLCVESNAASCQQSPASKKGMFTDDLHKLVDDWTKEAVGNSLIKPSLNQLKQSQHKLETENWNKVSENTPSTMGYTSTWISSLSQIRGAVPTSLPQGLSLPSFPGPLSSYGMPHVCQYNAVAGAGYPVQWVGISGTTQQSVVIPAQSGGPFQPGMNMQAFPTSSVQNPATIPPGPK
Experimental: To validate the direct binding of bilirubin to WNK1, we performed a Microscale Thermophoresis (MST) analysis, which assesses the binding capacity of a compound by measuring the movement of proteins over a microscopic temperature gradient.^[ [26], [27] ^] We overexpressed full‐length WNK1 fused with Green Fluorescent Protein (GFP) in HEK‐293 cells, incubated the lysates with bilirubin at varying dilutions, and subjected them to precise MST measurements in capillaries. […] Furthermore, biliverdin, a structurally similar intermediate product generated before bilirubin formation, was used as a control.
as §1
In HEK293T cells, proteins tagged with green fluorescent protein (GFP) were expressed. […]

[2] = target: T3, point mutations of WNK1 (1–491) (Homo sapiens, UniProt Q9H4A3, K351A); assay: MST, EGFP-tagged point mutations of WNK1 (1–491); type: binding; details: WNK1-N K351A
T3 construct: EGFP‐tagged point mutations of WNK1 (1–491) (15 min) in lysates; expressed in transfected cells; host or cells: HEK293T
T3 sequence (Q9H4A3 1-491 K351A): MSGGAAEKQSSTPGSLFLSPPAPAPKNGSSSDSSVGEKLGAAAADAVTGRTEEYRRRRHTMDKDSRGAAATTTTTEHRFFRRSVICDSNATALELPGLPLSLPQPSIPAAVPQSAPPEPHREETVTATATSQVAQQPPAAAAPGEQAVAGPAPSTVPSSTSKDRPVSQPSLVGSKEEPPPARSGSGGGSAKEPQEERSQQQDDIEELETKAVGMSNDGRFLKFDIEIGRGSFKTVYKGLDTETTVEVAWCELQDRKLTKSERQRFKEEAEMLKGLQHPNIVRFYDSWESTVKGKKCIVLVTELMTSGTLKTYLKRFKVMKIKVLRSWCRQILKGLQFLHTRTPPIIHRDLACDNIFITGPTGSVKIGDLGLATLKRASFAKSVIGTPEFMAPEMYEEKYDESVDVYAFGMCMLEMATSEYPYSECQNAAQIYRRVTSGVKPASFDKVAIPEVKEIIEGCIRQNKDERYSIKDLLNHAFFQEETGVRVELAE
Excerpt: (§2) Molecular docking identified several crucial amino acid residues within binding site 1 of the kinase domain for the binding of WNK1 and bilirubin. These residues included Thr301 (T301), Met304 (M304), Lys351 (K351), and Phe356 (F356) (Figure 3C). To investigate this further, we constructed WNK1‐N mutants by replacing these residues with alanine (A). […] This finding highlights the critical role of these residues in bilirubin binding.
(§3) In HEK293T cells, proteins tagged with green fluorescent protein (GFP) were expressed. The cells were lysed using the M‐PER Mammalian Protein Extraction Reagent (cat. no. 78505, Thermo Scientific) supplemented with protease inhibitors. Lysates were centrifuged at 12000 × g for 15 min at 4 °C, and the supernatant containing proteins was diluted 10‐fold with 1x PBST. Protein fluorescence intensity and solubility were assessed using capillary scanning at 60% LED power.
(§4) For the binding assay, the proteins were mixed with ligands and incubated for 15 min at room temperature before being loaded into Monolith NT.115 Capillaries or NT.115 Premium Capillaries (NanoTemper Technologies, MO‐K022 and MO‐K025). MST measurements were performed on a Monolith NT.115 instrument (NanoTemper Technologies) at 25 °C. Instrument parameters included no more than 80% excitation power and a medium MST power. Data analysis was conducted using the MO. Affinity Analysis software (NanoTemper Technologies).

[3] = target: T4, point mutations of WNK1 (1–491) (Homo sapiens, UniProt Q9H4A3, M304A); assay: MST, EGFP-tagged point mutations of WNK1 (1–491); type: binding; details: WNK1-N M304A
T4 construct: EGFP‐tagged point mutations of WNK1 (1–491) (15 min) in lysates; expressed in transfected cells; host or cells: HEK293T
T4 sequence (Q9H4A3 1-491 M304A): as the sequence (Q9H4A3 1-491 K351A) above, with M304A, A351K counted along it
Excerpt: as §2, §3, §4

[4] = target: T5, point mutations of WNK1 (1–491) (Homo sapiens, UniProt Q9H4A3, F356A); assay: MST, EGFP-tagged point mutations of WNK1 (1–491); type: binding; details: WNK1-N F356A
T5 construct: EGFP‐tagged point mutations of WNK1 (1–491) (15 min) in lysates; expressed in transfected cells; host or cells: HEK293T
T5 sequence (Q9H4A3 1-491 F356A): as the sequence (Q9H4A3 1-491 K351A) above, with A351K, F356A counted along it
Excerpt: as §2, §3, §4

[5] = target: T6, point mutations of WNK1 (1–491) (Homo sapiens, UniProt Q9H4A3, T301A); assay: MST, EGFP-tagged point mutations of WNK1 (1–491); type: binding; details: WNK1-N T301A
T6 construct: EGFP‐tagged point mutations of WNK1 (1–491) (15 min) in lysates; expressed in transfected cells; host or cells: HEK293T
T6 sequence (Q9H4A3 1-491 T301A): as the sequence (Q9H4A3 1-491 K351A) above, with T301A, A351K counted along it
Excerpt: as §2, §3, §4

For `C=CC1=C(C)/C(=C/c2[nH]c(Cc3[nH]c(/C=C4\NC(=O)C(C)=C4C=C)c(C)c3CCC(=O)O)c(CCC(=O)O)c2C)NC1=O` [bilirubin, Bilirubin], the pKd (WNK1 (191–491)) was 7.55, the “phosphorylation of OSR1 and SPAK” value ([1]; hippocampus of Wnk1flox/flox mice) was “elevated” and the “phosphorylation of OSR1 and SPAK” value ([1]; hippocampus of Wnk1flox/flox,Thy1-Cre mice) was “minimal impact”. For the same molecule, the pKd (hWNK3) was 6.12, the “binding to K351A mutant” value [2] was “reduced binding affinity” and the “binding to M304A mutant” value [3] was “reduced binding affinity”. For the same molecule, the “binding to F356A mutant” value [4] was “reduced binding affinity” and the “binding to T301A mutant” value [5] was “unable to bind”.
